Results on two compounds are retold here after patent US20260216239A1 (Arizona Board of Regents on Behalf of the University of …, priority 2020, published 2026).

Series [1] deals with Mojave rattlesnake (Crotalus scutulatus scutulatus) venom type A (Crotalus scutulatus scutulatus, UniProt P62023). Kind of series: Thrombelastography in human plasma of PLA2-dependent anticoagulant activity of venom. It is filed as biochemical. Here is the method: With regard to materials and methods, Mojave rattlesnake (Crotalus scutulatus scutulatus) venom type A was originally obtained from the National Natural Toxins Research Center (NNTRC) located at Texas A&M University-Kingsville, Kingsville, TX, U.S.A. A previously unthawed aliquot of this venom used in a previous work (see, Nielsen V G (2019) J Thromb Thrombolysis 48, 256-262) was dissolved in calcium-free phosphate buffered saline (PBS, Sigma-Aldrich, Saint Louis, MO, USA) at a concentration of 50 mg/ml, and had been stored at −80° C. RuCl3 as obtained from Sigma-Aldrich, Saint Louis, MO, USA. Calcium chloride (CaCl2, 200 mM) was obtained from Haemonetics Inc., Braintree, MA, USA. Lastly, pooled normal human plasma (George King Bio-Medical, Overland Park, KS, USA) anticoagulated with sodium citrate (9 parts blood to 1 part 0.105M sodium citrate) stored at −80° C. was utilized in all subsequently described experiments.
Specific volumes of subsequently described plasma and chemical additives varied by condition but summated to 360 μl. Sample composition consisted of 320 μl of plasma; 16.4 μl of PBS, 20 μl of 200 mM CaCl2, and 3.6 μl of one of five subsequently described solutions, which were placed into a disposable cup in a computer-controlled Thrombelastograph® hemostasis system (Model 5000, Haemonetics Inc., Braintree, MA, USA) at 37° C., and then rapidly mixed by moving the cup up against and then away from the plastic pin five times before leaving the mixture between the cup and pin. The following elastic modulus-based parameters previously described (see, Nielsen V G (2019) J Thromb Thrombolysis 48, 256-262; Nielsen V G, Frank N, Matika R W (2018) Biometals 31, 51-59; Nielsen V G, Frank N, Turchioe B J (2019) Blood Coagul Fibrinolysis 30, 379-384; Nielsen V G (2021) J Thromb Thrombolysis, doi: 10.1007/s11239-020-02373-4) were determined: time to maximum rate of thrombus generation (TMRTG): this is the time interval (minutes) observed prior to maximum speed of clot growth; maximum rate of thrombus generation (MRTG): this is the maximum velocity of clot growth observed (dynes/cm^2/second); and total thrombus generation (TTG, dynes/cm^2), the final viscoelastic resistance observed after clot formation. Data were collected until maximum amplitude was reached as determined by the software of the thrombelastographic system.
Experiments involving plasma exposure to RuCl3 and venom utilized the following five experimental conditions: 1) control condition (C)—no venom, 1% addition of PBS (v/v) to plasma; 2) RuCl3 in water condition (R/W)—no venom, 1% addition (v/v) of 100 μM RuCl3 dissolved in water to plasma (final concentration 1 μM); 3) RuCl3 in PBS condition (R/P)—no venom, 1% addition (v/v) of 100 μM RuCl3 dissolved in PBS to plasma (final concentration 1 μM); 4) venom condition (V)—venom addition (v/v, 125 ng/ml final concentration as previously reported) in PBS to plasma; and, 5) venom exposed to RuCl3 dissolved in PBS condition (V+R/P)—venom and 100 μM RuCl3 1% addition (v/v) in PBS to plasma. All the solutions used for these five conditions to be placed in plasma remained at room temperature for five minutes prior to addition.

The next series deals with acute kidney injury. Particulars: up to 30 mg/kg of CORM-2; cited from earlier work.
Another series has as its system Echis leucogaster venom. Briefly: Thrombelastography in human plasma of venom procoagulant activity after isolated exposure of venom to compounds. It is filed as biochemical. Conditions: venom exposed 5 min to 100 μM CORM-2 in 5% human albumin; venom 1 μg/mL in plasma.
For series [2] the following is noted: large dose of CORM-2 injected intravenously into rabbits; cited from earlier work.
[3] abbreviates: venom exposed 5 min to 100 μM RuCl3 in PBS vs RuCl3 naïve venom, venom 125 ng/ml.

Consider `[Cl][Ru]([Cl])[Cl]` [RuCl3, ruthenium(III) chloride], for which the “neurotoxic, anticoagulant PLA2 activity” value in series [1] (RuCl3 dissolved in PBS, 100 μM) was “inhibited”. Also, in series [1] (setting [3]), the “decrease in TMRTG values” is on record as 47%, the “increase in MRTG values” turned out to be 375% and the “increase in TTG values” is 231%. For the same compound, in series [1] (venom exposed to 100 μM RuCl3 in PBS vs control condition (no venom)), the “TMRTG, MRTG or TTG values” is on record as “no significant differences”.
In the case of `[C-]#[O+].[C-]#[O+].[C-]#[O+].[C-]#[O+].[C-]#[O+].[C-]#[O+].[Cl][Ru][Cl].[Cl][Ru][Cl]` [CORM-2, tricarbonyldichlororuthenium(II) dimer], in the series on acute kidney injury, the “protection against acute kidney injury” value is given as “protected against injury” and the tolerability result is on record as “well tolerated”. In addition, the “procoagulant activity of venom” value in the series with Echis leucogaster venom is “uninhibited”. In series [2], the tolerability result was “well tolerated”.
